According to the CheMixHub drug solubility set:

Experiment: xn = mol fraction of the nth substance listed, in the solute-free solvent

S=c1[nH]ncs1 + CCCO + O
solubility (g/100 g solution)
Details	278.15 K	283.15 K	288.15 K	293.15 K	298.15 K	303.15 K	308.15 K	313.15 K	318.15 K	323.15 K
x2 = 0.1	1.64	2.13	2.71	3.49	4.42	5.59	6.98	8.6	10.7	13.4
x2 = 0.2	3.48	4.3	5.41	6.75	8.22	10	12.1	14.6	17.5	20.8
x2 = 0.3	5.01	6.25	7.53	9.11	10.8	12.9	15.4	18.1	21.5	25.1
x2 = 0.4	6.2	7.46	8.98	10.7	12.7	14.7	17.2	20.1	23.3	26.9
x2 = 0.5	7.02	8.48	9.9	11.7	13.5	15.7	18.1	20.8	23.9	27.3
x2 = 0.6	7.59	8.9	10.3	11.9	13.8	15.9	18.2	20.4	23.3	26.4
x2 = 0.7	7.61	8.94	10.3	11.8	13.6	15.4	17.3	19.7	22.2	25.2
x2 = 0.8	7.47	8.6	9.84	11.4	13.1	14.6	16.8	18.9	21.2	24.1
x2 = 0.9	6.73	8.12	8.99	10.4	11.8	13.5	15.3	17.3	19.6	22.2
